The nature of this data set: activity coefficient (dimensionless); of the first substance listed, at infinite dilution; xn = mol fraction of the nth substance listed. The note with it: Liquid, Chromatography, x1 = 0.

Numbers after ± are expanded uncertainties.

Regarding `CCCC=O` [butanal] + CCCCCCCC[N+](CCCCCCCC)(CCCCCCCC)CCCCCCCC.O=S(=O)([N-]S(=O)(=O)C(F)(F)F)C(F)(F)F, the activity coefficient (343.15 K) came out at 0.31 ± 0.04.

As to `CC#N` [acetonitrile] + CCCCCCCC[N+](CCCCCCCC)(CCCCCCCC)CCCCCCCC.O=S(=O)([N-]S(=O)(=O)C(F)(F)F)C(F)(F)F, the activity coefficient came out at 0.5 ± 0.03 (322.85 K), 0.49 ± 0.03 (332.65 K) and 0.49 ± 0.03 (343.15 K).

In the case of `Cc1cccc(C)c1` [1,3-dimethylbenzene] + CCCCCCCC[N+](CCCCCCCC)(CCCCCCCC)CCCCCCCC.O=S(=O)([N-]S(=O)(=O)C(F)(F)F)C(F)(F)F, the activity coefficient turned out to be 0.6 ± 0.03 (332.65 K) and 0.62 ± 0.03 (343.15 K).

Take `CCCCCCC` [heptane] + CCCCCCCC[N+](C)(C)C.O=S(=O)([N-]S(=O)(=O)C(F)(F)F)C(F)(F)F: the activity coefficient is, setting by setting: (322.85 K) 8.27 ± 0.38; (332.65 K) 7.81 ± 0.36; (343.15 K) 7.18 ± 0.33.

With `CCc1ccccc1` [ethylbenzene] + CCCC[N+](C)(CCCC)CCCC.O=S(=O)([N-]S(=O)(=O)C(F)(F)F)C(F)(F)F, the activity coefficient was determined as 1.56 ± 0.06 (322.85 K), 1.64 ± 0.07 (332.65 K) and 1.63 ± 0.07 (343.15 K).

`C1CCCCC1` [cyclohexane] + CCCCCCCC[N+](CCCCCCCC)(CCCCCCCC)CCCCCCCC.O=S(=O)([N-]S(=O)(=O)C(F)(F)F)C(F)(F)F: the activity coefficient by setting is: (322.85 K) 0.95 ± 0.03; (332.65 K) 0.94 ± 0.03; (343.15 K) 0.92 ± 0.03.

Take `CCC(C)CC` [3-methylpentane] + CCCCCCCCCC[N+](C)(C)C.O=S(=O)([N-]S(=O)(=O)C(F)(F)F)C(F)(F)F: the activity coefficient is, setting by setting: (322.85 K) 3.88 ± 0.18; (332.65 K) 3.78 ± 0.17; (343.15 K) 3.62 ± 0.16.

For `C1COCCO1` [1,4-dioxane] + CCCC[N+](C)(CCCC)CCCC.O=S(=O)([N-]S(=O)(=O)C(F)(F)F)C(F)(F)F, the activity coefficient by setting is: (322.85 K) 0.61 ± 0.03; (332.65 K) 0.67 ± 0.03; (343.15 K) 0.67 ± 0.03.

Take `Cc1ccccc1` [toluene] + CCCCCCCC[N+](C)(C)C.O=S(=O)([N-]S(=O)(=O)C(F)(F)F)C(F)(F)F: the activity coefficient runs as follows: (322.85 K) 0.97 ± 0.03; (332.65 K) 0.98 ± 0.03; (343.15 K) 0.98 ± 0.03.

In the case of `CCCC=O` [butanal] + CCCCCCCCCC[N+](C)(C)C.O=S(=O)([N-]S(=O)(=O)C(F)(F)F)C(F)(F)F, the activity coefficient (322.85 K) was 0.47 ± 0.03, the activity coefficient (332.65 K) came to 0.53 ± 0.03 and the activity coefficient (343.15 K) was determined as 0.51 ± 0.03.

With `Cc1ccccc1C` [1,2-dimethylbenzene] + CCCC[N+](C)(CCCC)CCCC.O=S(=O)([N-]S(=O)(=O)C(F)(F)F)C(F)(F)F, the activity coefficient runs as follows: (322.85 K) 1.38 ± 0.05; (332.65 K) 1.46 ± 0.06; (343.15 K) 1.46 ± 0.06.

Regarding `CCCCCCCCCC` [decane] + CCCCCCCC[N+](CCCCCCCC)(CCCCCCCC)CCCCCCCC.O=S(=O)([N-]S(=O)(=O)C(F)(F)F)C(F)(F)F, the activity coefficient came out at 2.3 ± 0.1 (322.85 K), 2.32 ± 0.11 (332.65 K) and 2.21 ± 0.1 (343.15 K).

Regarding `CCC(C)=O` [butanone] + CCCCCCCC[N+](C)(C)C.O=S(=O)([N-]S(=O)(=O)C(F)(F)F)C(F)(F)F, the activity coefficient by setting is: (322.85 K) 0.41 ± 0.03; (332.65 K) 0.38 ± 0.03; (343.15 K) 0.34 ± 0.04.

Turning to `c1ccncc1` [pyridine] + CCCCCCCCCC[N+](C)(C)C.O=S(=O)([N-]S(=O)(=O)C(F)(F)F)C(F)(F)F, the activity coefficient is, setting by setting: (322.85 K) 0.46 ± 0.03; (332.65 K) 0.47 ± 0.03; (343.15 K) 0.47 ± 0.03.

Take `c1ccccc1` [benzene] + CCCCCCCC[N+](CCCCCCCC)(CCCCCCCC)CCCCCCCC.O=S(=O)([N-]S(=O)(=O)C(F)(F)F)C(F)(F)F: the activity coefficient turned out to be 0.4 ± 0.03 (322.85 K), 0.41 ± 0.03 (332.65 K) and 0.41 ± 0.03 (343.15 K).

In the case of `CCC=O` [propanal] + CCCCCCCCCC[N+](C)(C)C.O=S(=O)([N-]S(=O)(=O)C(F)(F)F)C(F)(F)F, the activity coefficient came out at 0.4 ± 0.03 (322.85 K), 0.42 ± 0.03 (332.65 K) and 0.41 ± 0.03 (343.15 K).

Consider `CCN(CC)CC` [triethylamine] + CCCCCCCCCC[N+](C)(C)C.O=S(=O)([N-]S(=O)(=O)C(F)(F)F)C(F)(F)F, for which the activity coefficient was 2.17 ± 0.1 (322.85 K), 2.4 ± 0.11 (332.65 K) and 2.31 ± 0.1 (343.15 K).

Regarding `CCC[N+](=O)[O-]` [1-nitropropane] + CCCCCCCC[N+](CCCCCCCC)(CCCCCCCC)CCCCCCCC.O=S(=O)([N-]S(=O)(=O)C(F)(F)F)C(F)(F)F, the activity coefficient reads like this: (322.85 K) 0.48 ± 0.03; (332.65 K) 0.48 ± 0.03; (343.15 K) 0.47 ± 0.03.

`ClC(Cl)Cl` [trichloromethane] + CCCCCCCCCC[N+](C)(C)C.O=S(=O)([N-]S(=O)(=O)C(F)(F)F)C(F)(F)F: the activity coefficient (322.85 K) came to 0.65 ± 0.03, the activity coefficient (332.65 K) is 0.68 ± 0.03 and the activity coefficient (343.15 K) turned out to be 0.68 ± 0.03.

Regarding `CCCCCCCCCCC` [undecane] + CCCCCCCC[N+](CCCCCCCC)(CCCCCCCC)CCCCCCCC.O=S(=O)([N-]S(=O)(=O)C(F)(F)F)C(F)(F)F, for the setting “343.15 K”, the activity coefficient is 2.54 ± 0.12.

With `C1COCCO1` [1,4-dioxane] + CCCCCCCC[N+](C)(C)C.O=S(=O)([N-]S(=O)(=O)C(F)(F)F)C(F)(F)F, the activity coefficient by setting is: (322.85 K) 0.62 ± 0.03; (332.65 K) 0.62 ± 0.03; (343.15 K) 0.61 ± 0.03.

Turning to `C=O` [methanal] + CCCC[N+](C)(CCCC)CCCC.O=S(=O)([N-]S(=O)(=O)C(F)(F)F)C(F)(F)F, the activity coefficient runs as follows: (322.85 K) 0.11 ± 0.04; (332.65 K) 0.12 ± 0.04; (343.15 K) 0.13 ± 0.04.

In the case of `Cc1ccccc1C` [1,2-dimethylbenzene] + CCCCCCCCCC[N+](C)(C)C.O=S(=O)([N-]S(=O)(=O)C(F)(F)F)C(F)(F)F, the activity coefficient is, setting by setting: (322.85 K) 1.03 ± 0.03; (332.65 K) 1.07 ± 0.03; (343.15 K) 1.07 ± 0.03.

Turning to `CO` [methanol] + CCCC[N+](C)(CCCC)CCCC.O=S(=O)([N-]S(=O)(=O)C(F)(F)F)C(F)(F)F, the activity coefficient is 0.96 ± 0.03 (322.85 K), 0.75 ± 0.03 (332.65 K) and 0.88 ± 0.03 (343.15 K).

On to `CC(C)CO` [2-methyl-1-propanol] + CCCCCCCC[N+](CCCCCCCC)(CCCCCCCC)CCCCCCCC.O=S(=O)([N-]S(=O)(=O)C(F)(F)F)C(F)(F)F, for which the activity coefficient by setting is: (322.85 K) 1.17 ± 0.04; (332.65 K) 1.09 ± 0.03; (343.15 K) 1 ± 0.03.

Turning to `CCCCCCC` [heptane] + CCCC[N+](C)(CCCC)CCCC.O=S(=O)([N-]S(=O)(=O)C(F)(F)F)C(F)(F)F, the activity coefficient (322.85 K) is 8.88 ± 0.41, the activity coefficient (332.65 K) was determined as 8.82 ± 0.4 and the activity coefficient (343.15 K) stood at 8.34 ± 0.38.

As to `CCCCCC` [hexane] + CCCCCCCCCC[N+](C)(C)C.O=S(=O)([N-]S(=O)(=O)C(F)(F)F)C(F)(F)F, the activity coefficient was determined as 4.2 ± 0.19 (322.85 K), 4.1 ± 0.18 (332.65 K) and 3.93 ± 0.17 (343.15 K).

For `CCO` [ethanol] + CCCC[N+](C)(CCCC)CCCC.O=S(=O)([N-]S(=O)(=O)C(F)(F)F)C(F)(F)F, the activity coefficient runs as follows: (322.85 K) 1.53 ± 0.06; (332.65 K) 1.4 ± 0.05; (343.15 K) 1.27 ± 0.04.

Regarding `CC(C)O` [propan-2-ol] + CCCCCCCC[N+](C)(C)C.O=S(=O)([N-]S(=O)(=O)C(F)(F)F)C(F)(F)F, the activity coefficient (322.85 K) was 1.63 ± 0.07 and the activity coefficient (343.15 K) stood at 1.32 ± 0.05.

Turning to `CCO` [ethanol] + CCCCCCCC[N+](CCCCCCCC)(CCCCCCCC)CCCCCCCC.O=S(=O)([N-]S(=O)(=O)C(F)(F)F)C(F)(F)F, the activity coefficient reads like this: (322.85 K) 1.18 ± 0.04; (332.65 K) 1.12 ± 0.03; (343.15 K) 1.05 ± 0.03.

In the case of `CCCCCCCCC` [nonane] + CCCC[N+](C)(CCCC)CCCC.O=S(=O)([N-]S(=O)(=O)C(F)(F)F)C(F)(F)F, the activity coefficient reads like this: (322.85 K) 16.5 ± 0.76; (332.65 K) 16.1 ± 0.74; (343.15 K) 15 ± 0.69.

In the case of `Cc1ccccc1C` [1,2-dimethylbenzene] + CCCCCCCC[N+](CCCCCCCC)(CCCCCCCC)CCCCCCCC.O=S(=O)([N-]S(=O)(=O)C(F)(F)F)C(F)(F)F, the activity coefficient by setting is: (332.65 K) 0.57 ± 0.03; (343.15 K) 0.58 ± 0.03.

`CC(C)CC(C)(C)C` [2,2,4-trimethylpentane] + CCCCCCCCCC[N+](C)(C)C.O=S(=O)([N-]S(=O)(=O)C(F)(F)F)C(F)(F)F: the activity coefficient was determined as 5.41 ± 0.25 (322.85 K), 5.29 ± 0.24 (332.65 K) and 4.92 ± 0.22 (343.15 K).

`ClCCl` [dichloromethane] + CCCC[N+](C)(CCCC)CCCC.O=S(=O)([N-]S(=O)(=O)C(F)(F)F)C(F)(F)F: the activity coefficient is, setting by setting: (322.85 K) 0.66 ± 0.03; (332.65 K) 0.69 ± 0.03; (343.15 K) 0.7 ± 0.03.

Consider `C1CCCCCC1` [cycloheptane] + CCCCCCCC[N+](CCCCCCCC)(CCCCCCCC)CCCCCCCC.O=S(=O)([N-]S(=O)(=O)C(F)(F)F)C(F)(F)F, for which the activity coefficient (322.85 K) is 2.21 ± 0.1, the activity coefficient (332.65 K) worked out at 3.16 ± 0.14 and the activity coefficient (343.15 K) amounted to 4.37 ± 0.2.

As for `CCCO` [propan-1-ol] + CCCCCCCC[N+](C)(C)C.O=S(=O)([N-]S(=O)(=O)C(F)(F)F)C(F)(F)F, the activity coefficient was found to be 1.7 ± 0.07 (322.85 K), 1.55 ± 0.06 (332.65 K) and 1.37 ± 0.05 (343.15 K).

Regarding `CCC(C)=O` [butanone] + CCCCCCCCCC[N+](C)(C)C.O=S(=O)([N-]S(=O)(=O)C(F)(F)F)C(F)(F)F, the activity coefficient was 0.33 ± 0.04 (322.85 K), 0.32 ± 0.04 (332.65 K) and 0.29 ± 0.04 (343.15 K).

Consider `CCC(C)CC` [3-methylpentane] + CCCCCCCC[N+](CCCCCCCC)(CCCCCCCC)CCCCCCCC.O=S(=O)([N-]S(=O)(=O)C(F)(F)F)C(F)(F)F, for which the activity coefficient reads like this: (322.85 K) 1.22 ± 0.04; (332.65 K) 1.22 ± 0.04; (343.15 K) 1.21 ± 0.04.

The record behind these values is the NIST ThermoML archive (doi:10.1021/je200637v).
